The values that follow come from patent publication US20060148014A1, “Tubulin isotype screening in cancer therapy using hemiasterlin analogs” (priority 2004, published 2006).

What is called IC50 is the concentration at which inhibition is half-maximal.

What all share (type): cell-based
The subject of assay [1] is MDA-MB-231 human breast cancer cell line. The experiment in a line: Cell growth inhibition assay (methylene blue), MDA-MB-231. The note with it: continuous presence of compound 4 or 7 days, at least three experiments, read-out: Average IC50. The text has this:
(§1) The following human breast cancer cell lines were obtained from the ATCC. Cells were maintained according to ATCC-recommended culture conditions. AU565 (ATCC Catalog No. ATCC Catalog. No. CRL-2351), BT-20 (ATCC Catalog No. HTB-19), MCF7 (ATCC Catalog No. HTB22), MDA-MB-231 (ATCC Catalog No. HTB-26), MDA-MB-435 (ATCC Catalog No. HTB-129), MDA-MB-468 (ATCC Catalog No. HTB-132), HCC38 (ATCC Catalog No. CRL-2314), HCC70 (ATCC Catalog No. CRL-2315), HCC1143 (ATCC Catalog No. CRL-2321), HCC1428 (ATCC Catalog No. CRL-2327), HCC1500 (ATCC Catalog No. CRL-2329), HCC1806 (ATCC Catalog No. CRL-2335), HCC1954 (ATCC Catalog No. CRL-2338), HCC2218 (ATCC Catalog No. CRL-2343), UACC-812 (ATCC Catalog No. CRL-1897), UACC-893 (ATCC Catalog No. CRL-1902), ZR-75-1 (ATCC Catalog No. CRL-1500), ZR-75-30 (ATCC Catalog No. CRL-1504).
(§2) Cultured human breast cancer cells were placed in 96-well plates and grown in the continuous presence of test compounds for 4 or 7 days. To expose the cells to test compounds for 7 days, medium was replaced with fresh medium containing compounds after 4 days of exposure and cells were incubated for 3 additional days. Cell growth was assessed using modifications (Amin et al., Cancer Res., 47:6040-6045, 1987; incorporated herein by reference) of a methylene blue-based microculture assay (Finlay et al., Anal. Biochem., 139:272-277, 1984; incorporated herein by reference).
(§3) To investigate the possible expression of PgP by the cell lines used in this study, the antiproliferative effects of paclitaxel were determined in the presence and absence of verapamil, a known inhibitor of PgP.

The test system of assay [2] is HCC1500 human breast cancer cell line. The experiment in a line: Cell growth inhibition assay (methylene blue), HCC1500. Particulars: continuous presence of compound 4 or 7 days, at least three experiments, read-out: Average IC50.
Excerpt: as §1, §2, §3

The subject of assay [3] is HCC1806 human breast cancer cell line. The experiment in a line: Cell growth inhibition assay (methylene blue), HCC1806. Particulars: continuous presence of compound 4 or 7 days, at least three experiments, read-out: Average IC50.
Excerpt: as §1, §2, §3

For assay [4], the system named is HCC2218 human breast cancer cell line. The experiment in a line: Cell growth inhibition assay (methylene blue), HCC2218. Particulars: HC-2218, continuous presence of compound 4 or 7 days, at least three experiments, read-out: Average IC50.
Excerpt: as §1, §2, §3

The test system of assay [5] is HCC70 human breast cancer cell line. The experiment in a line: Cell growth inhibition assay (methylene blue), HCC70. Particulars: continuous presence of compound 4 or 7 days, at least three experiments, read-out: Average IC50.
Excerpt: as §1, §2, §3

Assay [6] has as its system HCC1143 human breast cancer cell line. The experiment in a line: Cell growth inhibition assay (methylene blue), HCC1143. Particulars: continuous presence of compound 4 or 7 days, at least three experiments, read-out: Average IC50.
Excerpt: as §1, §2, §3

Assay [7] relates to AU565 human breast cancer cell line. The experiment in a line: Cell growth inhibition assay (methylene blue), AU565. The note with it: continuous presence of compound 4 or 7 days, at least three experiments, read-out: Average IC50.
Excerpt: as §1, §2, §3

Assay [8] has as its system MDA-MB-468 human breast cancer cell line. The experiment in a line: Cell growth inhibition assay (methylene blue), MDA-MB-468. Particulars: continuous presence of compound 4 or 7 days, at least three experiments, read-out: Average IC50.
Excerpt: as §1, §2, §3

The subject of assay [9] is HCC1428 human breast cancer cell line. The experiment in a line: Cell growth inhibition assay (methylene blue), HCC1428. The note with it: continuous presence of compound 4 or 7 days, at least three experiments, read-out: Average IC50.
Excerpt: as §1, §2, §3

Assay [10] relates to MDA-MB-435 human breast cancer cell line. The experiment in a line: Cell growth inhibition assay (methylene blue), MDA-MB-435. The note with it: continuous presence of compound 4 or 7 days, at least three experiments, read-out: Average IC50.
Excerpt: as §1, §2, §3

Assay [11] deals with ZR-75-30 human breast cancer cell line. The experiment in a line: Cell growth inhibition assay (methylene blue), ZR-75-30. Particulars: continuous presence of compound 4 or 7 days, at least three experiments, read-out: Average IC50.
Excerpt: as §1, §2, §3

Assay [12] relates to BT-20 human breast cancer cell line. The experiment in a line: Cell growth inhibition assay (methylene blue), BT-20. Particulars: continuous presence of compound 4 or 7 days, at least three experiments, read-out: Average IC50.
Excerpt: as §1, §2, §3

In assay [13] the test system is UACC-893 human breast cancer cell line. The experiment in a line: Cell growth inhibition assay (methylene blue), UACC-893. Particulars: continuous presence of compound 4 or 7 days, at least three experiments, read-out: Average IC50.
Excerpt: as §1, §2, §3

Assay [14] relates to HCC1419 human breast cancer cell line. The experiment in a line: Cell growth inhibition assay (methylene blue), HCC1419. Particulars: continuous presence of compound 4 or 7 days, at least three experiments, read-out: Average IC50. As for the experimental part:
as §2, §3

The subject of assay [15] is ZR-75-1 human breast cancer cell line. The experiment in a line: Cell growth inhibition assay (methylene blue), ZR-75-1. Particulars: continuous presence of compound 4 or 7 days, at least three experiments, read-out: Average IC50.
Excerpt: as §1, §2, §3

In assay [16] the test system is panel of 19 human breast cancer cell lines. The experiment in a line: Cell growth inhibition assay, panel of 19 human breast cancer cell lines. Particulars: for fold-difference between IC50's in the most sensitive and the least sensitive cell line: panel of 19 human breast cancer cell lines.
Excerpt: as §1, §2
Antiproliferative effects of four tubulin-binding anticancer agents were evaluated by a methylene blue-based cell growth inhibin assay in a panel of 19 human breast cancer cell lines. The following agents were used in this study: halichondrin analog E7389, hemiasterlin analog E7974, vinblastine, and paclitaxel. Each IC50 determination was conducted in at least three separate experiments. A presence of multidrug resistance efflux pump (P-glycoprotein or PgP) could markedly affect sensitivity of cell lines to test agents and thus mask correlations between beta-tubulin expression and cell lines' sensitivity to test agents. Cell lines were therefore tested for evidence of PgP expression by monitoring effects of the PgP blocker verapamil (used at a 10 μM concentration) on paclitaxel sensitivity. No evidence for PgP expression was found in any of the cell lines tested (Table 4). […] Inter-drug correlations were seen between sensitivities to the three microtubule polymerization inhibitors E7974, E7389, and vinblastine, but not between the microtubule polymerization stabilizer paclitaxel.

In assay [17] the test system is MCF-7 human breast cancer cell line. The experiment in a line: Cell growth inhibition assay (methylene blue), MCF-7. The note with it: MCF7, continuous presence of compound 4 or 7 days, at least three experiments, read-out: Average IC50.
Excerpt: as §1, §2, §3

In assay [18] the test system is UACC-812 human breast cancer cell line. The experiment in a line: Cell growth inhibition assay (methylene blue), UACC-812. The note with it: continuous presence of compound 4 or 7 days, at least three experiments, read-out: Average IC50.
Excerpt: as §1, §2, §3

Assay [19] deals with HCC38 human breast cancer cell line. The experiment in a line: Cell growth inhibition assay (methylene blue), HCC38. Particulars: continuous presence of compound 4 or 7 days, at least three experiments, read-out: Average IC50.
Excerpt: as §1, §2, §3

The test system of assay [20] is HCC1954 human breast cancer cell line. The experiment in a line: Cell growth inhibition assay (methylene blue), HCC1954. Particulars: continuous presence of compound 4 or 7 days, at least three experiments, read-out: Average IC50.
Excerpt: as §1, §2, §3

Take `C=C1C[C@@H]2CC[C@@]34C[C@H]5O[C@H]6[C@@H](O3)[C@H]3O[C@H](CC[C@@H]3O[C@H]6[C@H]5O4)CC(=O)C[C@@H]3[C@@H](OC)[C@@H](C[C@H](O)CN)O[C@H]3C[C@H]3O[C@@H](CC[C@@H]1O2)C[C@@H](C)C3=C` [E7389]: the half-inhibitory concentration (IC50) in [1] is 1.75 nM; in [2], 0.56 nM; in assay [3], 0.74 nM; in assay [4] it was 1.14 nM; in assay [5], 0.63 nM; in assay [6] it was 0.43 nM. Also, the IC50 in assay [7] is 0.65 nM; in assay [8], 0.45 nM; in assay [9] it was 0.53 nM; in [10], 0.29 nM; in [11], 1.8 nM; in assay [12], 0.82 nM. Moreover, the IC50 in assay [13] was 0.31 nM; in assay [14], 1.59 nM; in assay [15], 1.19 nM; in [16] (range over 19 human breast cancer cell lines) it was 0.29 to 1.8 nM; in assay [17], 1.45 nM; in [18] it was 1.17 nM. Moreover, the half-inhibitory concentration (IC50) in assay [19] amounted to 0.4 nM; in [20] it was 0.37 nM. For the same compound, in assay [16], the “fold-difference between IC50's in the most sensitive and the least sensitive cell line” value (“fold-difference between IC50's” for short) stood at 6.2 fold.

With `C/C(=C\[C@H](C(C)C)N(C)C(=O)[C@@H](NC(=O)[C@H]1CCCCN1C(C)C)C(C)(C)C)C(=O)O` [E7974], in assay [16], the “fold-difference between IC50's” value was 6.8 fold.

In the case of `CC[C@]1(O)C[C@@H]2CN(CCc3c([nH]c4ccccc34)[C@@](C(=O)OC)(c3cc4c(cc3OC)N(C)[C@H]3[C@@](O)(C(=O)OC)[C@H](OC(C)=O)[C@]5(CC)C=CCN6CC[C@]43[C@@H]65)C2)C1` [Vinblastine, vinblastine], the IC50 in assay [1] was determined as 1.6 nM; in assay [2] it was 0.56 nM; in [3] it was 0.86 nM; in assay [4], 1.56 nM; in assay [5], 0.8 nM; in [6], 0.53 nM. Further, the IC50 in assay [7] came to 1.05 nM; in [8] it was 0.82 nM; in assay [9], 0.55 nM; in assay [10], 0.43 nM; in [11], 2.4 nM; in assay [12] it was 1.15 nM. Moreover, the IC50 in assay [13] was 1.32 nM; in assay [14] it was 1.7 nM; in assay [15], 1.72 nM; in assay [17], 0.89 nM; in assay [18] it was 1.11 nM; in assay [19] it was 0.73 nM. For the same compound, the IC50 in assay [20] was found to be 0.7 nM. For the same compound, in [16], the “fold-difference between IC50's” value is 5.6 fold.
